Measurements: the supplement of paper PMC10883282

What was measured:
Experiment in all cases: relative viability vs DMSO control (72 h) (fraction); higher = more viable cells
[1] = test system: RD-ES
Outline: (§1)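 Sarcoma cell lines were grown in 384-well plates seeded toward 80–90% confluence and exposed 24 h later to serially diluted compound. After 72 h at 37 °C and 5% CO2, with 0.1% DMSO vehicle and a 5 µM positive control on the plates, ATPLite was read. Relative viability, given as percent growth averaged over up to triplicate wells, was rescaled so that 1 is full and 0 is none.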

[2] = test system: HS729
Outline: as §1

[3] = test system: RD
Outline: as §1

[4] = test system: HT1080
Outline: as §1

[5] = test system: SW684
Outline: as §1

[6] = test system: SW1353
Outline: as §1

[7] = test system: KHOS-240S
Outline: as §1

[8] = test system: SYO-1
Outline: as §1

[9] = test system: KHOS-NP
Outline: as §1

[10] = test system: SW872
Outline: as §1

[11] = test system: SK-LMS-1
Outline: as §1

[12] = test system: G401
Outline: as §1

COC(=O)N[C@@H](C)CNc1nccc(-c2cn(C(C)C)nc2-c2cc(Cl)cc(NS(C)(=O)=O)c2F)n1 [Encorafenib]
Conditions	relative viability
[1], 0.00017 µM	0.93
[1], 0.00051 µM	0.95
[1], 0.00152 µM	0.973
[1], 0.00457 µM	0.956
[1], 0.01372 µM	0.935
[1], 0.04115 µM	0.94
[1], 0.1235 µM	0.905
[1], 0.3704 µM	0.91
[1], 1.111 µM	0.707
[1], 3.333 µM	0.462
[1], 10 µM	0.565
[2], 0.00017 µM	1.069
[2], 0.00051 µM	1.077
[2], 0.00152 µM	1.07
[2], 0.00457 µM	0.993
[2], 0.01372 µM	0.994
[2], 0.04115 µM	0.995
[2], 0.1235 µM	1.04
[2], 0.3704 µM	0.975
[2], 1.111 µM	0.821
[2], 3.333 µM	0.69
[2], 10 µM	0.719
[3], 0.00017 µM	0.963
[3], 0.00051 µM	1.01
[3], 0.00152 µM	1.015
[3], 0.00457 µM	1
[3], 0.01372 µM	1.01
[3], 0.04115 µM	1.01
[3], 0.1235 µM	1.01
[3], 0.3704 µM	0.978
[3], 1.111 µM	0.807
[3], 3.333 µM	0.447
[3], 10 µM	0.45
[4], 0.00017 µM	1.06
[4], 0.00051 µM	1.09
[4], 0.00152 µM	1.07
[4], 0.00457 µM	1.08
[4], 0.01372 µM	1.09
[4], 0.04115 µM	1.08
[4], 0.1235 µM	1.06
[4], 0.3704 µM	1.08
[4], 1.111 µM	0.885
[4], 3.333 µM	0.715
[4], 10 µM	0.765
[5], 0.00017 µM	0.979
[5], 0.00051 µM	1
[5], 0.00152 µM	1.04
[5], 0.00457 µM	1.04
[5], 0.01372 µM	1.04
[5], 0.04115 µM	1.04
[5], 0.1235 µM	1.05
[5], 0.3704 µM	1.01
[5], 1.111 µM	0.943
[5], 3.333 µM	0.824
[5], 10 µM	0.834
[6], 0.00017 µM	1.06
[6], 0.00051 µM	1.09
[6], 0.00152 µM	1.1
[6], 0.00457 µM	1.08
[6], 0.01372 µM	1.086
[6], 0.04115 µM	1.08
[6], 0.1235 µM	1.07
[6], 0.3704 µM	1.1
[6], 1.111 µM	0.966
[6], 3.333 µM	0.767
[6], 10 µM	0.739
[7], 0.00017 µM	0.998
[7], 0.00051 µM	0.986
[7], 0.00152 µM	1.01
[7], 0.00457 µM	0.993
[7], 0.01372 µM	0.964
[7], 0.04115 µM	0.981
[7], 0.1235 µM	0.991
[7], 0.3704 µM	0.97
[7], 1.111 µM	0.904
[7], 3.333 µM	0.788
[7], 10 µM	0.732
[8], 0.00017 µM	0.988
[8], 0.00051 µM	0.992
[8], 0.00152 µM	0.972
[8], 0.00457 µM	0.985
[8], 0.01372 µM	1.003
[8], 0.04115 µM	0.997
[8], 0.1235 µM	1.018
[8], 0.3704 µM	1.02
[8], 1.111 µM	0.988
[8], 3.333 µM	0.877
[8], 10 µM	0.818
[9], 0.00017 µM	1.01
[9], 0.00051 µM	1.01
[9], 0.00152 µM	1.03
[9], 0.00457 µM	1.02
[9], 0.01372 µM	1.01
[9], 0.04115 µM	0.99
[9], 0.1235 µM	1.03
[9], 0.3704 µM	0.984
[9], 1.111 µM	0.851
[9], 3.333 µM	0.528
[9], 10 µM	0.435
[10], 0.00017 µM	0.96
[10], 0.00051 µM	0.952
[10], 0.00152 µM	0.96
[10], 0.00457 µM	0.902
[10], 0.01372 µM	0.729
[10], 0.04115 µM	0.599
[10], 0.1235 µM	0.555
[10], 0.3704 µM	0.524
[10], 1.111 µM	0.459
[10], 3.333 µM	0.335
[10], 10 µM	0.295
[11], 0.00017 µM	1.01
[11], 0.00051 µM	1.02
[11], 0.00152 µM	0.9804
[11], 0.00457 µM	1.017
[11], 0.01372 µM	0.953
[11], 0.04115 µM	0.933
[11], 0.1235 µM	0.9782
[11], 0.3704 µM	0.894
[11], 1.111 µM	0.7389
[11], 3.333 µM	0.49
[11], 10 µM	0.441
[12], 0.00017 µM	0.975
[12], 0.00051 µM	1.01
[12], 0.00152 µM	0.9948
[12], 0.00457 µM	1.01
[12], 0.01372 µM	1.02
[12], 0.04115 µM	1.06
[12], 0.1235 µM	1.04
[12], 0.3704 µM	1.01
[12], 1.111 µM	0.841
[12], 3.333 µM	0.653
[12], 10 µM	0.5834

CN1CCN(c2ccc(C(=O)Nc3n[nH]c4ccc(Cc5cc(F)cc(F)c5)cc34)c(NC3CCOCC3)c2)CC1 [Entrectinib]
Conditions	relative viability
[1], 0.00017 µM	0.991
[1], 0.00051 µM	1.02
[1], 0.00152 µM	0.986
[1], 0.00457 µM	0.986
[1], 0.01372 µM	0.992
[1], 0.04115 µM	0.997
[1], 0.1235 µM	0.99
[1], 0.3704 µM	0.929
[1], 1.111 µM	0.776
[1], 3.333 µM	0.552
[1], 10 µM	0.0781
[2], 0.00017 µM	1.06
[2], 0.00051 µM	0.975
[2], 0.00152 µM	0.931
[2], 0.00457 µM	0.948
[2], 0.01372 µM	0.946
[2], 0.04115 µM	0.959
[2], 0.1235 µM	0.925
[2], 0.3704 µM	0.919
[2], 1.111 µM	0.832
[2], 3.333 µM	0.665
[2], 10 µM	0.382
[3], 0.00017 µM	1.08
[3], 0.00051 µM	1.13
[3], 0.00152 µM	1.14
[3], 0.00457 µM	1.13
[3], 0.01372 µM	1.11
[3], 0.04115 µM	1.1
[3], 0.1235 µM	1.11
[3], 0.3704 µM	1.07
[3], 1.111 µM	0.934
[3], 3.333 µM	0.589
[3], 10 µM	0.0669
[4], 0.00017 µM	1.095
[4], 0.00051 µM	1.13
[4], 0.00152 µM	1.1
[4], 0.00457 µM	1.08
[4], 0.01372 µM	1.08
[4], 0.04115 µM	1.09
[4], 0.1235 µM	1.08
[4], 0.3704 µM	1.06
[4], 1.111 µM	1.06
[4], 3.333 µM	0.952
[4], 10 µM	0.349
[5], 0.00017 µM	1.14
[5], 0.00051 µM	1.17
[5], 0.00152 µM	1.14
[5], 0.00457 µM	1.2
[5], 0.01372 µM	1.15
[5], 0.04115 µM	1.15
[5], 0.1235 µM	1.16
[5], 0.3704 µM	1.12
[5], 1.111 µM	1.1
[5], 3.333 µM	0.971
[5], 10 µM	-0.0109
[6], 0.00017 µM	1.04
[6], 0.00051 µM	1.05
[6], 0.00152 µM	1.01
[6], 0.00457 µM	1.01
[6], 0.01372 µM	0.976
[6], 0.04115 µM	0.985
[6], 0.1235 µM	0.9886
[6], 0.3704 µM	0.9517
[6], 1.111 µM	0.953
[6], 3.333 µM	0.782
[6], 10 µM	0.0075
[7], 0.00017 µM	1.06
[7], 0.00051 µM	1.061
[7], 0.00152 µM	1.1
[7], 0.00457 µM	1.08
[7], 0.01372 µM	1.08
[7], 0.04115 µM	1.07
[7], 0.1235 µM	1.08
[7], 0.3704 µM	1
[7], 1.111 µM	0.939
[7], 3.333 µM	0.617
[7], 10 µM	0.0159
[8], 0.00017 µM	1.03
[8], 0.00051 µM	0.998
[8], 0.00152 µM	1.02
[8], 0.00457 µM	0.953
[8], 0.01372 µM	0.979
[8], 0.04115 µM	0.948
[8], 0.1235 µM	0.925
[8], 0.3704 µM	0.851
[8], 1.111 µM	0.765
[8], 3.333 µM	0.529
[8], 10 µM	-0.0142
[9], 0.00017 µM	1.08
[9], 0.00051 µM	1.1
[9], 0.00152 µM	1.07
[9], 0.00457 µM	1.08
[9], 0.01372 µM	1.06
[9], 0.04115 µM	1.05
[9], 0.1235 µM	1.04
[9], 0.3704 µM	1.03
[9], 1.111 µM	1.01
[9], 3.333 µM	0.98
[9], 10 µM	0.602
[10], 0.00017 µM	1.11
[10], 0.00051 µM	1.09
[10], 0.00152 µM	1.1
[10], 0.00457 µM	1.07
[10], 0.01372 µM	1.05
[10], 0.04115 µM	1.05
[10], 0.1235 µM	1.03
[10], 0.3704 µM	0.961
[10], 1.111 µM	0.887
[10], 3.333 µM	0.66
[10], 10 µM	0.218
[11], 0.00017 µM	1.13
[11], 0.00051 µM	1.1
[11], 0.00152 µM	1.12
[11], 0.00457 µM	1.13
[11], 0.01372 µM	1.1
[11], 0.04115 µM	1.07
[11], 0.1235 µM	1.07
[11], 0.3704 µM	1.072
[11], 1.111 µM	1.03
[11], 3.333 µM	0.856
[11], 10 µM	0.0143
[12], 0.00017 µM	1.04
[12], 0.00051 µM	1.01
[12], 0.00152 µM	1.057
[12], 0.00457 µM	1.07
[12], 0.01372 µM	1.03
[12], 0.04115 µM	1.01
[12], 0.1235 µM	1.011
[12], 0.3704 µM	0.979
[12], 1.111 µM	0.87
[12], 3.333 µM	0.651
[12], 10 µM	0.163
